The nature of one series: method code SF-AS, from DOI: 10.1016/0223-5234(89)90112-8.
Details: not given
The term logP denotes a log measure of how a compound divides between an organic and an aqueous phase. Read a low logP as a more hydrophilic compound. In the case of `CCCCCCCCOC1(c2ccccc2)CN(C)CCO1` (stereo not drawn), the lipophilicity (logP) was 2.32.
In turn, `CN1CCOC(O)(c2ccc(Br)cc2)C1` (stereo not drawn) registered a log partition coefficient (logP) of 1.57.
Consider `CC1C(c2ccccc2)OC(O)(c2ccccc2)CN1C` (stereo not drawn), for which the logP amounted to 1.87.
In turn, `CN1CCOC(O)(c2cccc(C(F)(F)F)c2)C1` (stereo not drawn) showed a logP of 1.39.
For the compound `CCCOC1(c2ccc(Br)cc2)CN(C)CCO1` (stereo not drawn), the logP came to 2.19.
Regarding `CN1CCOC(OCCc2ccccc2)(c2ccccc2)C1` (stereo not drawn), the logP was determined as 2.11.

The series is the same for the next values; noted with them: pH 7.4.
By logD is commonly meant the decadic logarithm of the distribution of all forms, ionised or not, between an organic phase and buffer at a given pH. For `CCOC1(c2ccccc2)OCCN(C)C1C` (stereo not drawn), the logD was found to be 1.74.
`CC1N(C)CCOC1(O)c1ccccc1` (stereo not drawn) came in with a logD of 1.31.
Regarding `CC(C)COC1(c2ccccc2)CN(C)CCO1` (stereo not drawn), the logD stood at 1.98.
As to `CN1CCOC(O)C1c1ccccc1` (stereo not drawn), the logD is 0.97.
Still for that read-out and setting: to `CCCCOC1(c2ccccc2)CN(C)CCO1` (stereo not drawn) belongs 2.05; to `CCCOC1(c2ccccc2)CN(C)CCO1` (stereo not drawn), 1.95.
`CN1CCOC(O)(c2ccccc2)C1` (stereo not drawn) yielded a logD of 1.3.
The compound `C=CCOC1(c2ccccc2)CN(C)CCO1` (stereo not drawn) displayed a logD of 1.92.
Take `CC1CN(C)CC(O)(c2ccccc2)O1` (stereo not drawn): the logD was 1.48.
The compound `CCCOC1(c2ccccc2)CN(C)CC(C)O1` (stereo not drawn) displayed a logD of 1.96.
In turn, `C#CCOC1(c2ccccc2)CN(C)CCO1` (stereo not drawn) displayed a logD of 1.76.
As to `CN1CCOC(OCc2ccccc2)(c2ccccc2)C1` (stereo not drawn), the logD came out at 2.05.

Source of the values: the SangsterLogP compilation.
